Columns and labels:
[1] = test system: Plutella xylostella (Diamond Back Moth); assay: Activity against Plutella xylostella, treated artificial diet; format: in vivo; conditions: 120 h, application rate of 200 ppm, L2 larvae, 5 days after infestation, read-out: effect in at least one of the two categories (mortality or growth inhibition)
Experimental: (§1) 24-well microtiter plates with artificial diet were treated with aqueous test solutions prepared from 10,000 ppm DMSO stock solutions by pipetting. After drying, the plates were infested with L2 larvae (10 to 15 per well). The samples were assessed for mortality and growth inhibition in comparison to untreated samples 5 days after infestation.

[2] = test system: Bemisia tabaci (Cotton White Fly); assay: Activity against Bemisia tabaci, sprayed cotton leaf discs; format: in vivo; conditions: foliar, 144 h, application rate of 200 ppm, adult white flies, 6 days after incubation
Experimental: (§2) Cotton leaf discs were placed on agar in 24-well microtiter plates and sprayed with aqueous test solutions prepared from 10,000 ppm DMSO stock solutions. After drying the leaf discs were infested with adult white flies. The samples were checked for mortality 6 days after incubation.

[3] = test system: Spodoptera littoralis (Egyptian Cotton Leaf Worm); assay: Activity against Spodoptera littoralis, sprayed cotton leaf discs; format: in vivo; conditions: foliar, 72 h, application rate of 200 ppm, L1 larvae, 3 days after infestation, read-out: control (at least one of mortality, anti-feedant effect, and growth inhibition)
Experimental: Cotton leaf discs were placed on agar in 24-well microtiter plates and sprayed with aqueous test solutions prepared from 10,000 ppm DMSO stock solutions. After drying the leaf discs were infested with five L1 larvae. The samples were assessed for mortality, anti-feedant effect, and growth inhibition in comparison to untreated samples 3 days after infestation. Control of Spodoptera littoralis by a test sample is when at least one of mortality, anti-feedant effect, and growth inhibition is higher than the untreated sample.

[4] = test system: Diabrotica Balteata (Corn Root Worm); assay: Activity against Diabrotica balteata, sprayed maize sprouts; format: in vivo; conditions: 96 h, application rate of 200 ppm, L2 larvae, 4 days after infestation, read-out: effect in at least one of the two categories (mortality or growth inhibition)
Experimental: as §1, with “Maize sprouts, placed on an agar layer in 24-well” for “24-well”, “plates” for “plates with artificial diet”, “spraying.” for “pipetting.”, “(6” for “(10”, “10” for “15”, “4” for “5”

[5] = test system: Thrips tabaci (Onion Thrips); assay: Activity against Thrips tabaci, sprayed sunflower leaf discs; format: in vivo; conditions: foliar, 144 h, application rate of 200 ppm, thrips population of mixed ages, 6 days after infestation
Experimental: as §2, with “Sunflower” for “Cotton”, “a thrips population of mixed ages.” for “adult white flies.”, “assessed” for “checked”, “infestation.” for “incubation.”

[6] = test system: Frankliniella occidentalis (Western Flower Thrips); assay: Activity against Frankliniella occidentalis, sprayed sunflower leaf discs; format: in vivo; conditions: foliar, 168 h, application rate of 200 ppm, population of mixed ages, 7 days after infestation
Experimental: Sunflower leaf discs were placed on agar in 24-well microtiter plates and sprayed with aqueous test solutions prepared from 10,000 DMSO stock solutions. After drying the leaf discs were infested with a Frankliniella population of mixed ages. The samples were assessed for mortality 7 days after infestation.

[7] = test system: Myzus persicae (Green Peach Aphid); assay: Activity against Myzus persicae, systemic via roots of pea seedlings; format: in vivo; conditions: 144 h, test rate of 24 ppm, roots of pea seedlings in test solution, 6 days
Experimental: Roots of pea seedlings infested with an aphid population of mixed ages were placed directly in the aqueous test solutions prepared from 10,000 DMSO stock solutions. The samples were assessed for mortality 6 days after placing seedlings in test solutions.

[8] = test system: Euschistus heros(Neotropical Brown Stink Bug); assay: Activity against Euschistus heros, sprayed soybean leaf; format: in vivo; conditions: 120 h, application rate of 200 ppm, N-2 nymphs, 5 days after infestation, read-out: effect in at least one of the two categories (mortality or growth inhibition)
Experimental: Soybean leaf on agar in 24-well microtiter plates were sprayed with aqueous test solutions prepared from 10,000 ppm DMSO stock solutions. After drying the leaf were infested with N-2 nymphs. The samples were assessed for mortality and growth inhibition in comparison to untreated samples 5 days after infestation.

[9] = test system: Myzus persicae (Green Peach Aphid); assay: Activity against Myzus persicae, sprayed sunflower leaf discs; format: in vivo; conditions: foliar, 144 h, application rate of 200 ppm, aphid population of mixed ages, 6 days after infestation
Experimental: Sunflower leaf discs were placed on agar in a 24-well microtiter plate and sprayed with aqueous test solutions prepared from 10,000 ppm DMSO stock solutions. After drying, the leaf discs were infested with an aphid population of mixed ages. The samples were assessed for mortality 6 days after infestation.

[10] = test system: Spodoptera littoralis (Egyptian Cotton Leaf Worm); assay: Activity against Spodoptera littoralis, systemic via lettuce grown on treated agar; format: in vivo; conditions: 144 h, test rate of 12.5 ppm, root uptake by lettuce, 6 days after infestation, read-out: effect in at least one of the three categories (mortality, anti-feedancy, or growth inhibition)
From the text: Test compounds were applied by pipette from 10,000 ppm DMSO stock solutions into 24-well plates and mixed with agar. Lettuce seeds were placed on the agar and the multi well plate was closed by another plate which contains also agar. After 7 days the roots have absorbed the compound and the lettuce has grown into the lid plate. The lettuce leafs were now cut off into the lid plate. Spodoptera eggs were pipetted through a plastic stencil on a humid gel blotting paper and the plate closed with it. The samples were assessed for mortality, anti-feedant effect and growth inhibition in comparison to untreated samples 6 days after infestation.

[11] = test system: Tetranychus urticae (Two-Spotted Spider Mite); assay: Activity against Tetranychus urticae, sprayed bean leaf discs; format: in vivo; conditions: foliar, 192 h
Experimental: Bean leaf discs on agar in 24-well microtiter plates were sprayed with aqueous test solutions prepared from 10,000 ppm DMSO stock solutions. After drying the leaf discs were infested with a mite population of mixed ages. The samples were assessed for mortality on mixed population (mobile stages) 8 days after infestation.

melting point [°C]	SMILES	percent effect (mortality or growth inhibition) at 200 ppm [1] [%]	mortality at 200 ppm [2] [%]	mortality at 200 ppm [3] [%]	percent effect (mortality or growth inhibition) at 200 ppm [4] [%]	mortality at 200 ppm [5] [%]	mortality at 200 ppm [6] [%]	mortality at 24 ppm [7] [%]	percent effect (mortality or growth inhibition) at 200 ppm [8] [%]	mortality at 200 ppm [9] [%]	percent control (mortality, anti-feedancy or growth inhibition) at 12.5 ppm [10] [%]	mortality at 200 ppm [11] [%]
94 to 95	CCSc1cc(SC(F)(F)F)cnc1-c1nnc(-c2cc(C(F)(F)F)ccn2)n1C [Compound P33, 3-ethylsulfanyl-2-[4-methyl-5-[4-(trifluoromethyl)-2-pyridyl]-1,2,4-triazol-3-yl]-5-(trifluoromethylsulfanyl)pyridine]											
	CCS(=O)(=O)c1cc(-n2cnc(Cl)n2)cnc1-c1nnc(-c2cc(C(F)(F)F)ncn2)n1C [Compound P45]	≥ 80	≥ 80	≥ 80	≥ 80	≥ 80	≥ 80	≥ 80	≥ 80	≥ 80		
242 to 244	CCS(=O)(=O)c1ccc(-n2cnc(C#N)n2)nc1-c1nnc(-c2cc(C(F)(F)F)ncn2)n1C [Compound P49]											
201 to 203	CCS(=O)(=O)c1ccc(-c2cccc(F)c2)nc1-c1nnc(-c2cc(C(F)(F)F)ncn2)n1C [Compound P51]											
	CCS(=O)(=O)c1cc(-n2cc(C#N)cn2)cnc1-c1nnc(-c2cc(C(F)(F)F)ccn2)n1C [Compound P14, 1-[5-ethylsulfonyl-6-[4-methyl-5-[4-(trifluoromethyl)-2-pyridyl]-1,2,4-triazol-3-yl]-3-pyridyl]pyrazole-4-carbonitrile]	≥ 80	≥ 80	≥ 80	≥ 80	≥ 80	≥ 80	≥ 80	≥ 80	≥ 80	≥ 80	
	CCS(=O)(=O)c1cc(-c2nccc(C#N)n2)cnc1-c1nnc(-c2cc(C(F)(F)F)ccn2)n1C [Compound P19]			≥ 80	≥ 80							≥ 80
	CCS(=O)(=O)c1cc(C2(C#N)CC2)cnc1-c1nnc(-c2cc(C(F)(F)F)ccn2)n1C [Compound P17, 1-[5-ethylsulfonyl-6-[4-methyl-5-[4-(trifluoromethyl)-2-pyridyl]-1,2,4-triazol-3-yl]-3-pyridyl]cyclopropanecarbonitrile]	≥ 80	≥ 80	≥ 80	≥ 80	≥ 80	≥ 80	≥ 80	≥ 80	≥ 80	≥ 80	
174 to 175	CCSc1ccc(-c2ccc(C(F)(F)F)cc2)nc1-c1nnc(-c2cc(C(F)(F)F)ccn2)n1C [Compound P31, 3-ethylsulfanyl-2-[4-methyl-5-[4-(trifluoromethyl)-2-pyridyl]-1,2,4-triazol-3-yl]-6-[4-(trifluoromethyl)phenyl]pyridine]											
	CCS(=O)(=O)c1cc(-n2cc(C(F)(F)F)cn2)cnc1-c1nnc(-c2cc(C(F)(F)F)ccn2)n1C [Compound P6]	≥ 80	≥ 80	≥ 80	≥ 80	≥ 80	≥ 80		≥ 80	≥ 80	≥ 80	
	CCS(=O)(=O)c1cc(-n2cnc(Cl)n2)cnc1-c1nnc(-c2cc(C(F)(F)F)ccn2)n1C [Compound P27]	≥ 80	≥ 80	≥ 80	≥ 80	≥ 80	≥ 80	≥ 80	≥ 80	≥ 80	≥ 80	

Reference: patent US10292391B2, “Pesticidally active 1,2,4-triazole derivatives with sulphur containing substituents” (Syngenta Participations AG, priority 2015, dated 2019)
